# “And” between values parts separate entries of the source, which are not always exact repeats. Identical values can stand only once.
# B1: Solute carrier family 22 member 3 (Rattus norvegicus) (protein)
# chain: MPTFDQALRKAGEFGRFQRRVFLLLCLTGVTFAFLFVGVVFLGSQPDYYWCRGPRATALAERCAWSPEEEWNLTTPELHVPAERRGQGHCHRYLLEDTNTSSELSCDPLAAFPNRSAPLVPCSGDWRYVETHSTIVSQFDLVCGNAWMLDLTQAILNLGFLAGAFTLGYAADRYGRLIVYLISCFGVGITGVVVAFAPNFSVFVIFRFLQGVFGKGAWMTCFVIVTEIVGSKQRRIVGIVIQMFFTLGIIILPGIAYFTPSWQGIQLAISLPSFLFLLYYWVVPESPRWLITRKQGEKALQILRRVAKCNGKHLSSNYSEITVTDEEVSNPSCLDLVRTPQMRKCTLILMFAWFTSAVVYQGLVMRLGLIGGNLYMDFFISGLVELPGALLILLTIERLGRRLPFAASNIVAGVSCLVTAFLPEGIPWLRTTVATLGRLGITMAFEIVYLVNSELYPTTLRNFGVSLCSGLCDFGGIIAPFLLFRLAAIWLELPLIIFGILASVCGGLVMLLPETKGIALPETVEDVEKLGSSQLHQCGRKKKTQVSTSNV
# Experiments:
# [1] = biological target: T1, Solute carrier family 22 member 3 (Rattus norvegicus, UniProt O88446); assay: TP_TRANSPORTER: uptake in Xenopus laevis oocytes; format: functional, cell-based; details: oocyte
# T1 sequence (O88446 whole entry): B1 chain
# [2] = biological target: T1, Solute carrier family 22 member 3; assay: TP_TRANSPORTER: uptake in OCT3-expressing HeLa cells; format: functional, cell-based; details: human
# [3] = biological target: T2, OCT3 (Solute carrier family 22 member 3) (Rattus norvegicus, UniProt O88446); assay: TP_TRANSPORTER: inhibition of Guanidine uptake (Guanidine: 35 uM, TMA: 5000 uM) in OCT3-expressing HeLa cells; format: functional, cell-based; parameters: scale not given: the % may be the effect or the level left; details: human, probe guanidine (35 uM), read-out: Activity
# T2 sequence (O88446 whole entry): B1 chain
# [4] = biological target: T2, OCT3 (Solute carrier family 22 member 3); assay: TP_TRANSPORTER: inhibition of Guanidine uptake (Guanidine: 35 uM, MPP+: 5000 uM) in OCT3-expressing HeLa cells; format: functional, cell-based; parameters: scale not given: the % may be the effect or the level left; details: human, probe guanidine (35 uM), read-out: Activity
# [5] = biological target: T2, OCT3 (Solute carrier family 22 member 3); assay: TP_TRANSPORTER: inhibition of Guanidine uptake (Guanidine: 35 uM, NMN: 5000 uM) in OCT3-expressing HeLa cells; format: functional, cell-based; parameters: scale not given: the % may be the effect or the level left; details: human, probe guanidine (35 uM), read-out: Activity
# [6] = biological target: T2, OCT3 (Solute carrier family 22 member 3); assay: TP_TRANSPORTER: inhibition of Guanidine uptake (Guanidine: 35 uM, MPTP: 5000 uM) in OCT3-expressing HeLa cells; format: functional, cell-based; parameters: scale not given: the % may be the effect or the level left; details: human, probe guanidine (35 uM), read-out: Activity
# [7] = biological target: T2, OCT3 (Solute carrier family 22 member 3); assay: in vitro; details: human, OCT3-expressing HeLa cells, probe guanidine (35 uM)
# [8] = biological target: T2, OCT3 (Solute carrier family 22 member 3); assay: TP_TRANSPORTER: inhibition of Guanidine uptake (Guanidine: 35 uM, Desipramine: 5000 uM) in OCT3-expressing HeLa cells; format: functional, cell-based; parameters: scale not given: the % may be the effect or the level left; details: human, probe guanidine (35 uM), read-out: Activity
# [9] = biological target: T2, OCT3 (Solute carrier family 22 member 3); assay: TP_TRANSPORTER: inhibition of Guanidine uptake (Guanidine: 35 uM, Serotonin: 5000 uM) in OCT3-expressing HeLa cells; format: functional, cell-based; parameters: scale not given: the % may be the effect or the level left; details: human, probe guanidine (35 uM), read-out: Activity
# [10] = biological target: T2, OCT3 (Solute carrier family 22 member 3); assay: in vitro; details: human, OCT3-expressing HeLa cells, probe guanidine (35 uM); remark: listed apart in the source
# Description: TP_TRANSPORTER: inhibition of Guanidine uptake (Guanidine: 35 uM, TEA: 5000 uM) in OCT3-expressing HeLa cells
# [11] = substrate: CC[N+](CC)(CC)CC; assay: cells, lysate or membranes named
molecule,measurement,setting,value
N=C(N)N [GUANIDINE],Activity,[1],substrate [+]
same,Activity,[2],substrate [+]
C[N+](C)(C)C [TETRAMETHYLAMMONIUM],activity at 5000 µM,[3],59%
C[n+]1ccc(-c2ccccc2)cc1,activity at 5000 µM,[4],22%
CNC(=O)c1cccnc1 [NICOTINYL METHYLAMIDE],activity at 5000 µM,[5],33%
CN1CC=C(c2ccccc2)CC1,activity at 5000 µM,[6],14%
CN1CCC[C@H]1c1cccnc1 [NICOTINE],activity at 5000 µM,[7],52%
CNCCCN1c2ccccc2CCc2ccccc21 [DESIPRAMINE],activity at 5000 µM,[8],1%
NCCc1c[nH]c2ccc(O)cc12 [SEROTONIN],activity at 5000 µM,[9],30%
CC[N+](CC)(CC)CC [TETRYLAMMONIUM],activity at 5000 µM,[10],41%
B1,Km,[11],2.5 mM and 6.2 mM
